Laboratory results: paper PMC11859040 (Pharmaceuticals, 2025)
Values after ≈ are worked out from the molar mass of the structure shown.

Columns and labels:
ARPE-19 cells [1] = experiment: Cytocompatibility, MTT assay, ARPE-19 cells; format: cell-based, human; conditions: 5 μM CUR, 3 h, vs control
Description: The ARPE-19 cell line obtained from the American Type Culture Collection (ATCC, Manassas, VA, USA) was used in the study. Cells were cultured in Dulbecco’s modified eagle medium/nutrition mix F-12 (1:1; Gibco, Paisley, UK) supplemented with 10% fetal bovine serum (FBS; Hyclone, Logan, UT, USA), 100 U/mL penicillin (Lonza, Walkersville, MD), and 2 mM L-glutamine (Lonza, Walkersville, MD, USA). The cells were grown at 37 °C in a humidified 5% CO2 atmosphere. The experiments were performed 24 h after seeding using an FBS-free medium. […] The cells were exposed for 3 h before the cell viability tests. Cell viability was assessed using the MTT assay. Cells were assessed with microscopy before the viability test to confirm the correlation of the absorbance readings from the MTT assay.

ARPE-19 cells [2] = experiment: Indirect quantification of CUR uptake (CUR recovered in medium); format: cell-based, human
Description: ARPE-19 cells were seeded on acid-etched coverslips placed into a 6-well plate with a seeding density of 850,000 cells/well and incubated at 37 °C for 24 h. The cells were then incubated with media containing AC at the same concentration that was used for the cytotoxicity experiment. After 3 h of exposure to the AC and C formulations, the coverslips were removed, washed twice with PBS, and fixed with 4% paraformaldehyde (PFA) for 15 min. Subsequently, the PFA was removed, followed by two washes with PBS. […] Cell imaging was conducted using a ZEISS Axio Imager M2 fluorescent microscope (Carl Zeiss Microscopy Deutschland GmbH, Oberkochen, Germany). […] The experiments were conducted 24 h after seeding, using an FBS-free medium. The cells were rinsed once with a serum-free medium to remove the FBS residues and then exposed to 0.1–2 μM concentrations of SNEDD-CUR diluted in a medium. After a 3 h exposure period, the medium was removed and collected into another 96-well plate.

cell proliferation = conditions: cited from earlier work
ARPE-19 cells [3] = experiment: Cell viability in HQ-induced oxidative stress (MTT); format: cell-based, human; conditions: ARPE-19, 600 μM HQ
Description: (§1) […] Cells were rinsed once using an FBS-free medium to remove any residual CUR-SNEDDS. Afterward, the oxidative stress-provoking agent, HQ (Sigma-Aldrich), was added. The cells were exposed to 600 μM HQ for 2 h to achieve 60–70% viability, as determined in the control samples [44]. Cell viability was assessed using the MTT assay. Cells were assessed with microscopy before the viability test to confirm the correlation of the absorbance readings from the MTT assay.

[4] = Stability of CUR in PBS and in SNEDDS under storage conditions; format: physicochemical; conditions: PBS, 6 h
Description: HPLC analysis was performed on a reversed-phase C18 column (4.6 mm × 150 mm, 5 μm, ZORBAX Eclipse SB-C18) at 25 °C. The mobile phase was composed of water with 4% acetic acid and acetonitrile (44:56, v/v), filtered through a 0.22 μm Milli-pore filter and degassed prior to use. The flow rate was 0.850 mL/min, and the eluent was detected by a DAD detector at 430 nm.
The preparation of the sample AC followed the procedure described in Section 4.3. The sample was divided into four glass vials, with each set of vials being stored under different conditions, namely at 4 °C dark, 25 °C dark, 25 °C light, and 40 °C dark, to assess the typical storage conditions and investigate possible protection from degradation phenomena. Sample C was prepared differently. […] The mixture was then subjected to magnetic stirring at 350 rpm for 20 min. After stirring, the tube was centrifuged at 13,000 rpm for 20 min at 25 °C. The supernatant was collected and divided into four glass vials, each representing a different storage condition compared to the AC sample. […] HPLC analysis was employed to detect any variations in absorbance.

[5] = Solubility of CUR in water (inherent vs apparent with SNEDDS); format: physicochemical
HCE cells = experiment: Cytocompatibility, MTT assay, HCE cells; format: cell-based, human; conditions: 5 μM CUR, 3 h, vs control
Description: HCE cells were cultured at 37 °C and 5% CO2 using a growth medium consisting of 1:1 DMEM/F12 (Gibco by Life Technologies Limited, Paisley, UK), 15% FBS (fetal bovine serum; Gibco by Life Technologies Limited, Paisley, UK), 100 U/mL penicillin, 0.1 mg/mL streptomycin (penicillin/streptomycin solution from EuroClone spa, Pero, Italy), 0.3 mg/mL L-glutamine (EuroClone spa, Pero, Italy), 10 ng/mL EGF (Recombinant Human Epidermal Growth Factor; Gibco by Life Technologies Corporation, Carlsbad, CA, USA), 5 μg/mL human recombinant insulin (Gibco by Life Technologies Corporation, Grand Island, NY, USA), and 0.5% sterile filtrated DMSO (Sigma-Aldrich, St. Louis, MO, USA), 0.1 μg/mL cholera toxin (Sigma-Aldrich, St. Louis, MO, USA). The fresh growth medium was changed for the cells every 2–3 days. When reaching a 75–80% confluence, the cells were either subcultured 1:5–1:30 or seeded for the experiment. Upon confluence, the cells were washed with 1xDPBS (Gibco by Life Technologies Limited, Paisley, UK) and detached with 0.05% trypsin–EDTA (Gibco by Life Technologies Limited, Paisley, UK). […] Cell viability was assessed using the 3-(4,5-dimethyl-thiazol-2-yl)-2,5-diphenyltetrazolium bromide (MTT) assay. Cells were assessed with microscopy before the viability test to confirm the correlation of the absorbance readings from the MTT assay.

[6] = CUR solubility in different vehicles (oils and surfactants); format: physicochemical; conditions: for solubility at 24 h: 25 °C, thermodynamic from solid
Description: Different types of oils were selected based on biocompatibility and biodegradability: Mygliol® 812, Capryol® PGMC and Capryol® 90, Tegin® O, Isopropylmyristate (IPM), and Castor oil. Five surfactants, including Tween® 20, Tween® 80, Cremophor EL®, Solutol ®HS15, and Transcutol® P, were selected for the experiment in order to investigate the best materials for CUR-SNEDDS preparation. […] The mixtures were stirred (350 rpm) using a magnetic stirrer for 24 h. The samples were covered in order to prevent photo-degradation. […] The absorbance reading occurred at 422 nm.

[7] = Cell viability in HQ-induced oxidative stress (MTT); format: cell-based, human; conditions: human, ARPE-19 cells; ARPE-19, 600 μM HQ alone
Description: as §1

SMILES | Reduction in cell viability (ARPE-19 cells [1]) | CUR recovered in the medium (not internalized) (ARPE-19 cells [2]; ARPE-19, 3 h, listed as free CUR) [%] | CUR internalized (ARPE-19 cells [2]; ARPE-19, concentration not stated (discussion)) [%] | CUR internalized inside the cells (ARPE-19 cells [2]; ARPE-19, higher concentrations such as 1 μM and 2 μM, 3 h) [%] | IC50 (cell proliferation; anticancer agent and cell proliferation blocker) [µM] | Concentrations at which CUR acts as anticancer agent and cell proliferation blocker (cell proliferation) [µM] | Effect on cell viability compared to cells exposed to HQ (ARPE-19 cells [3]) | CUR remaining / recovered ([4]; 4 °C) [%] | CUR remaining / recovered ([4]; 25 °C (r.t.) dark) | CUR remaining / recovered ([4]; 25 °C (r.t.) dark, listed as Native CUR) [%] | CUR remaining / recovered ([4]; 25 °C light) | CUR remaining / recovered ([4]; 40 °C dark) | solubility [5] [µg/mL] | Reduction in cell viability (HCE cells) | solubility at 24 h ([6]; aqueous with cosolvent or surfactant or cyclodextrin, in Tween 80) [µg/mL] | solubility at 24 h ([6]; oil or lipid, in Capryol 90) [µg/mL] | solubility at 24 h ([6]; organic solvent or mixture, in Transcutol P) [µg/mL] | Solubility of CUR ([6]; in Capryol PGMC) [µg/mL] | viability at 2 h, 600 μM [7] [%]
COc1cc(/C=C/C(=O)CC(=O)/C=C/c2ccc(O)c(OC)c2)ccc1O [CUR, Curcumin] | not observed | 100 | 0 | 1 | ~10 | 5 to 10 | no significant difference | 57 | less than 10% | 9 | completely degraded | completely degraded | < 1 | not observed | 6800 (≈ 18.5 mM) | 8360 (≈ 22.7 mM) | 4610 (≈ 12.5 mM) | 8000 | 
Oc1ccc(O)cc1 [HQ, hydroquinone] |  |  |  |  |  |  |  |  |  |  |  |  |  |  |  |  |  |  | 70
